Among the data in patent publication US5591891A, “N-[Mercaptoacyl (amino acid or peptide ) ] compounds and S-lipophiIic aliphatic carbonyl derivatives thereof as antihypertensives” (Institut National de la Sante et de la Recherche Medicale …, priority 1994, dated 1997) are IC50 values, retold here.

Test [1] deals with neutral endopeptidase (NEP) (Homo sapiens, UniProt P08473). Description: Enzymatic inhibition of neutral endopeptidase, [3H]D-Ala2-Leu-enkephalin as substrate. The test is classed as biochemical. The method, then: The enzymatic inhibitory properties of compounds according to the present invention are measured using [^3 H]D-Ala^2 -Leu-enkephalin as a substrate for neutral endopeptidase as described previously by Llorens et al., Biochem. Biophys.

In test [2] the target is peptidyldipeptidase A (ACE) (Homo sapiens, UniProt P12821). As to the kind of experiment: Enzymatic inhibition of peptidyldipeptidase A, Z-Phe-His-Leu as substrate. The test is classed as biochemical.
peptidyldipeptidase A (ACE), sequence (P12821 30-1306, species assumed): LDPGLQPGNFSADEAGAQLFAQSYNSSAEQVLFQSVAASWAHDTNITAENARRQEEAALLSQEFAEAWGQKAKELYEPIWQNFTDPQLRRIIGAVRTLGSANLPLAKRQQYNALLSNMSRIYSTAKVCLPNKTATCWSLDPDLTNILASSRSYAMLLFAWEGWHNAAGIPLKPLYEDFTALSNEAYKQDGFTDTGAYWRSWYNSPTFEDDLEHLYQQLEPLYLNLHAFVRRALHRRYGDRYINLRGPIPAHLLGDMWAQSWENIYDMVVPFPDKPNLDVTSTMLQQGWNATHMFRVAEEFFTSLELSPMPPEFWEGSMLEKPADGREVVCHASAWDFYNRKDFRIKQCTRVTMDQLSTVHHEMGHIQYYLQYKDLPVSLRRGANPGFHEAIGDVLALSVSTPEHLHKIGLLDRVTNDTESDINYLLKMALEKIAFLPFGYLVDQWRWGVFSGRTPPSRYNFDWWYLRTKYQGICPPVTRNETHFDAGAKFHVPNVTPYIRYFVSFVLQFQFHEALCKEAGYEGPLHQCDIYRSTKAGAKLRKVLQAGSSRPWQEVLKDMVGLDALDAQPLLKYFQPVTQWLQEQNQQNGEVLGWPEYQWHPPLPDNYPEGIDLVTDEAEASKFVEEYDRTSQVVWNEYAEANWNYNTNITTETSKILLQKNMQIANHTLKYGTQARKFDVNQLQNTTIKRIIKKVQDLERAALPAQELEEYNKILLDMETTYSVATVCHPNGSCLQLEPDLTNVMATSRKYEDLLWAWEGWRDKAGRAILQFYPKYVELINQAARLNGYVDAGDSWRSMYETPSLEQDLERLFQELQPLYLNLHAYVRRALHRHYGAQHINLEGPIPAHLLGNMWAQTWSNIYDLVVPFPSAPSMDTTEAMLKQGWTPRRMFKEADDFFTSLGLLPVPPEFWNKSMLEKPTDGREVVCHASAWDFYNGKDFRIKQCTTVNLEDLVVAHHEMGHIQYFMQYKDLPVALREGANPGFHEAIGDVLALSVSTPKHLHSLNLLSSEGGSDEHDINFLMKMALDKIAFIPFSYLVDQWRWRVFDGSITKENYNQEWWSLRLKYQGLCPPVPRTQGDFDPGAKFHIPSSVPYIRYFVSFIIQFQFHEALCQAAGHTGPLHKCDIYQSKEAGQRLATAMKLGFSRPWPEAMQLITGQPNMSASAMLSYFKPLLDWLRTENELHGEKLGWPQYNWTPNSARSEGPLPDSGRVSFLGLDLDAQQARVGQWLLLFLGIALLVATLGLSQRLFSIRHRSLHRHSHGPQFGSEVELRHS

neutral endopeptidase (NEP), sequence (P08473 whole entry, species assumed): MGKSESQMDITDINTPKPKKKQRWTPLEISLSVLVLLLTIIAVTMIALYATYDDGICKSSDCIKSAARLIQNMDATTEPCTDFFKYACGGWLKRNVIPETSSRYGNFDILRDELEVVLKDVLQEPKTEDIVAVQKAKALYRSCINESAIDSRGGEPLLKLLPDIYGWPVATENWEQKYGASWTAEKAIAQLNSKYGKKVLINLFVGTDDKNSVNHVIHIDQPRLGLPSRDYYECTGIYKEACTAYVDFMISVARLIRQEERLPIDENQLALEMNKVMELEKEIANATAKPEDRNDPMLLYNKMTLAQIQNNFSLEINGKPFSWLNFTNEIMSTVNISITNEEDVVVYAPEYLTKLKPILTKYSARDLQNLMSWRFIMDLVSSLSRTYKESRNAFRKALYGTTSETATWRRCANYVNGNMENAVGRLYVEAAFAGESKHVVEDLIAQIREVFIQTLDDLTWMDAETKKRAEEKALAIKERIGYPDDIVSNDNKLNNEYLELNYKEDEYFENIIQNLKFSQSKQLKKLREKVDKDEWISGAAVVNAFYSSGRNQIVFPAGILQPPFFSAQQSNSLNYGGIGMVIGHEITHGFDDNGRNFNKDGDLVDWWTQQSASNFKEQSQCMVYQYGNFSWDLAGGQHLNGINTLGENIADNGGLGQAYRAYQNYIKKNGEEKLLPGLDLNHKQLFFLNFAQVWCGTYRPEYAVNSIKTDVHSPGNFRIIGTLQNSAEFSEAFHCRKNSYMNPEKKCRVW

Consider `CC(c1ccccc1)C(CS)C(=O)N[C@@H](C)C(=O)O` (stereo partly shown) [Example 67, N-(2-Mercaptomethyl-1-oxo-3-phenylbutyl)alanine], for which the IC50 (usually the concentration that inhibits the measured activity by half) turned out to be 2 nM in test [1] (Table IV) and 2.8 nM in test [2] (Table IV).
Regarding `CC[C@H](C)[C@H](NC(=O)C(S)c1ccccc1)C(=O)N[C@@H](Cc1ccc(O)cc1)C(=O)O` (stereo partly shown) [Example 28, N-(2-Mercapto-2-phenylacetyl)-Ile-Tyr], the IC50 was determined as 4.5 ± 0.5 nM in test [1] (Table III) and 3.5 ± 0.5 nM in test [2] (Table III).
As for `CC(c1ccc(F)c(F)c1)C(CS)C(=O)N[C@@H](C)C(=O)O` (stereo partly shown) [Example 82, N-[2-Mercaptomethyl-3-(3,4-difluorophenyl)-1-oxobutyl]alanine], the results for the IC50 in test [1] (Table IV) and in test [2] (Table IV) were 3 nM and 5 nM, respectively.
For `CCC(C)C(NC(=O)C(S)Cc1ccccc1)C(=O)N1CCCCC1C(=O)O` (stereo not shown) [Example 21, N-(2-Mercapto-3-phenylpropanoyl)-Ile-Pip], the IC50 amounted to 5 ± 2 nM in test [1] (Table III) and 2 ± 1 nM in test [2] (Table III).
For the compound `CC(c1ccccc1)C(CSS)C(=O)N[C@@H](Cc1ccc(O)cc1)C(=O)O` (stereo partly shown) [88(B), N-(2-mercaptothiomethyl-1-oxo-3-phenylbutyl)tyrosine], the IC50 in test [1] (Table IV) is 3.1 nM; in test [2] (Table IV), 52 nM.
With `CCCC[C@H](NC(=O)C(CS)C(C)c1ccccc1)C(=O)O` (stereo partly shown) [Example 69, N-(2-Mercaptomethyl-1-oxo-3-phenylbutyl)norleucine], in test [2] (Table IV), the IC50 came out at 5.8 nM. That is a single-digit nanomolar value.
Consider `CC(c1ccc(F)c(F)c1)C(CS)C(=O)N[C@@H](Cc1ccc(O)cc1)C(=O)O` (stereo partly shown) [Example 84, N-[2-Mercaptomethyl-3-(3,4-difluorophenyl)-1-oxobutyl]tyrosine], for which the IC50 in test [1] (Table IV) is 6.3 nM; in test [2] (Table IV), 3.5 nM.
Take `CC(c1ccccc1)C(CS)C(=O)N[C@@H](Cc1ccc(O)cc1)C(=O)O` (stereo partly shown) [Example 61, N-(2-Mercaptomethyl-1-oxo-3-phenylbutyl)tyrosine]: in test [2] (Table IV), the IC50 turned out to be 1.8 nM.
With `CC(C)C(NC(=O)C(S)CCc1ccccc1)C(=O)N[C@@H](Cc1ccc(O)cc1)C(=O)O` (stereo partly shown) [Example 26, N-(2-Mercapto-4-phenylbutanoyl)-Val-Tyr], the IC50 in test [1] (Table III) came out at 10 ± 1 nM; in test [2] (Table III), 8 ± 2 nM.
As to `CC(c1ccc(O)cc1)C(CS)C(=O)N[C@@H](C)C(=O)O` (stereo partly shown) [Example 73, N-[2-Mercaptomethyl,3-(4-hydroxyphenyl)-1-oxobutyl]alanine], the IC50 in test [1] (Table IV) was 3.5 nM; in test [2] (Table IV), 6.2 nM.
Take `CC(C)C[C@H](NC(=O)C(S)Cc1ccccc1)C(=O)N[C@@H](Cc1ccc(O)cc1)C(=O)O` (stereo partly shown) [Example 23, N-(2-Mercapto-3-phenylpropanoyl)-Leu-Tyr]: the IC50 in test [1] (Table III) is 3 ± 2 nM; in test [2] (Table III), 30 ± 5 nM.
The matching figures for `CCC(C)C(S)C(=O)NC(C(=O)N[C@@H](Cc1ccc(O)cc1)C(=O)O)C(C)C` (stereo partly shown) [Example 25, N-(2-Mercapto-3-methylpentanoyl)-Val-Tyr]: 5 ± 2 nM and 2 ± 0.5 nM.
The matching figures for `CC(C)[C@H](NC(=O)C(S)Cc1ccccc1)C(=O)N[C@@H](Cc1ccc(O)cc1)C(=O)O` (stereo partly shown) [Example 19, N-(2-Mercapto-3-phenylpropanoyl)-Val-Tyr]: 5 ± 2 nM and 4 ± 1 nM.
Consider `CC(c1ccccc1)C(CS)C(=O)NCC(=O)O` (stereo not shown) [Example 63, N-(2-Mercaptomethyl-1-oxo-3-phenylbutyl)glycine], for which the IC50 in test [1] (Table IV) turned out to be 1.3 nM; in test [2] (Table IV), 25 nM.
Take `CCCC[C@H](NC(=O)C(S)Cc1ccccc1)C(=O)N[C@@H](Cc1ccc(O)cc1)C(=O)O` (stereo partly shown) [Example 22, N-(2-Mercapto-3-phenylpropanoyl)-Nle-Tyr]: the IC50 amounted to 18 ± 2 nM in test [1] (Table III) and 30 ± 5 nM in test [2] (Table III).
As for `CCC(C)C(S)C(=O)N[C@@H](Cc1ccccc1)C(=O)N[C@@H](Cc1ccc(O)cc1)C(=O)O` (stereo partly shown) [Example 24, N-(2-Mercapto-3-methylpentanoyl)-Phe-Tyr], the IC50 in test [1] (Table III) came to 3 ± 1 nM; in test [2] (Table III), 8 ± 2 nM.
For `CC(c1ccccc1)C(CSS)C(=O)N[C@@H](Cc1ccc(O)cc1)C(=O)O` (stereo partly shown) [Example 88(A), N-(2-Mercaptothiomethyl-1-oxo-3-phenylbutyl)tyrosine], the IC50 in test [1] (Table IV) is 1 nM; in test [2] (Table IV), 3 nM.
The matching figures for `CC(=O)SCC(C(=O)N[C@@H](C)C(=O)O)C(C)c1ccc(F)cc1` (stereo partly shown) [Example 78, N-[2-Acetylthiomethyl-3-(4-fluorophenyl)-1-oxobutyl]alanine]: 1.9 nM and 8.5 nM.
The matching figures for `CC(=O)SC(C(=O)N[C@@H](Cc1ccc(O)cc1)C(=O)O)C(C)c1ccc(F)cc1` (stereo partly shown) [Example 80, N-[2-Acetylthio-3-(4-fluorophenyl)-1-oxobutyl]tyrosine]: 4.8 nM and 5.9 nM.
Turning to `CC[C@H](C)[C@H](NC(=O)C(S)Cc1ccccc1)C(=O)N[C@@H](Cc1ccc(O)cc1)C(=O)OC` (stereo partly drawn) [Example 20, N-(2-Mercapto-3-phenylpropanoyl)-Ile-Tyr-OMe], the IC50 in test [1] (Table III) worked out at 3.2 ± 0.3 nM; in test [2] (Table III), 2.5 ± 0.1 nM.
The like results for `CC[C@H](C)[C@H](NC(=O)C(S)C(C)C)C(=O)N[C@@H](Cc1ccc(O)cc1)C(=O)O` (stereo partly shown) [Example 27, N-(2-Mercapto-3-methylbutanoyl)-Ile-Tyr] were, in that order, 1.4 ± 0.2 nM and 0.3 ± 0.1 nM.
Turning to `CC(c1ccc(O)cc1)C(CS)C(=O)N[C@@H](Cc1ccc(O)cc1)C(=O)O` (stereo partly shown) [Example 75, N-[2-Mercaptomethyl-3-(4-hydroxyphenyl)-1-oxobutyl]tyrosine], the IC50 in test [1] (Table IV) amounted to 1.8 nM; in test [2] (Table IV), 3.5 nM.
The like results for `CC(c1ccccc1)C(CS)C(=O)N[C@@H](COCc1ccccc1)C(=O)O` (stereo partly shown) [Example 65, N-(2-Mercaptomethyl-1-oxo-3-phenylbutyl)-O-benzylserine] were, in that order, 4 nM and 71 nM.
The matching figures for `C[C@H](NC(=O)C(CS)C1CCc2ccccc21)C(=O)O` (stereo partly shown) [Example 71, N-[3-Mercapto-2-(1-indanyl)-1-oxopropyl]alanine]: 1.3 nM and 7.9 nM.
